Measurements reported in US20070265208A1, “Association of calpain inhibitors and reactive oxygen species trapping agents” (priority 2000, published 2007).

Key:
Format in all cases: cell-based
[1] = test system: calpain activity in human neuroblastomas (SHSY5Y); assay: In situ calpain activity in human neuroblastomas SHSY5Y stimulated by maitotoxin; conditions: read-out: Inhibition human calpain I, in situ (SHSY5Y) [IC50 (nM)]; n = 6; maitotoxin 1 nM; 4 h
Experimental: (§1) Human neuroblastomas SHSY5Y and rat glial cells C6 are seeded at a rate of 50,000 and 25,000 cells respectively per well on 96-well plates in DMEM 10% FBS. The next day, the cells which have adhered are washed 3 times in DMEM medium without serum and 40 mM Hepes. 100 microlitres of product B is placed in the wells. After incubation for 1 hour at 37° C. under an atmosphere of 5% CO2, 10 μl containing the fluorescent substrate of calpain (Suc-Leu-Tyr-AMC) and maitotoxin (Sigma, ref: M-9159), in order to obtain a final concentration in the well of 100 μM and of 1 nM respectively are added.
(§2) In order to determine the total activity of the cell enzyme, wells containing no product are added to the plate (100 μL DMSO 100th plus 10 μl of MTX and substrate). The background noise is determined by adding control wells with no MTX. Each concentration of the products (0.3 μM to 200 μM for the SHSY5Y's and 0.01 μM to 100 μM for the C6's) is tested in triplicate. The plates are shaken, the fluorescence is read at 380/460 nm using the Victor at T zero. Incubation takes place for four hours for the SHSY5Y and 1 hour 30 minutes for the C6 cells at 30° C. in darkness.

[2] = test system: calpain activity in rat glial cells (C6); assay: In situ calpain activity in rat glial cells C6 stimulated by maitotoxin; conditions: read-out: Inhibition human calpain I, in situ (C6) [IC50 (nM)]; n = 3; maitotoxin 1 nM; 1 h 30 min
Experimental: as §1, §2

rat glial cells C6 = assay: Protection from necrosis induced by maitotoxin, C6 (wst-1 viability); conditions: single product at 50 μM, n = 3 for Example 2, else n = 1
Experimental: Human neuroblastomas SHSY5Y and rat glial cells C6 are seeded at 25 000 cells per well in 96-well plates in DMEM 10% FBS for 24 hours. The L6 rat myoblasts are seeded at 1000 cells per well in DMEM 10% FBS on 96-well microplates coated beforehand with gelatin 0.5% PBS. After culture for 3 days the medium is removed and replaced with a differentiation medium (DMEM+10 μg/ml of insulin+100 μg/ml of transferrin). 50 μl of product A plus 50 μl of solvent or 50 μl of product B are placed in the wells. After incubation for 1 hour at 37° C. under an atmosphere of 5% CO2, 10 μl of maitotoxin is added in order to obtain a final concentration of 0.1 nM to 1 nM (according to the cell type). After incubation for 3 hours at 37° C. under an atmosphere of 5% CO2, the cell viability is determined by adding 10 μl of tetrazolium salts (wst-1, Roche, ref: 1644807). The tetrazolium salts are cleaved into formazan molecules by mitochondrial dehydrogenases. The quantity of formazan formed is directly correlated to the number of metabolically active cells in the culture. Measurement of the absorbance of the formazan is carried out using a multiwell photometer at a wavelength of 420 nm against a reference wavelength of 620 nm.
The theoretical effect was obtained by multiplying the percentage of dead cells in the presence of product A by the percentage of dead cells in the presence of product B (Table 3). The percentage protection against cell death induced by MTX being the percentage of cells kept alive in the presence of the product or products.
In the light of the previous results, the combination of Example 1 with product A and product B at a rate of 100 μM of each of the products is carried out on human neuroblastomas (SHSY5Y; (Table 5A) and on glial cells with 25 μM of product A and 50 μM of product B (C6; Table 5B) on a larger number of cases.

## CC(C)C[C@@H](C=O)NC(=O)[C@H](CC(C)C)NC(=O)OCc1ccccc1 [EXAMPLE 1 B, benzyl (1S)-1-({[(1S)-1-formyl-3-methylbutyl]amino}carbonyl)-3-methylbutylcarbamate]
[1]
  IC50: 13400 ± 2390 nM
[2]
  IC50: 1750 ± 340 nM
Rat glial cells C6
  Protection from necrosis induced by MTX on C6: 9.63%
Rat glial cells C6; listed as EXAMPLE 6 B
  Protection from necrosis induced by MTX on C6: 4.91%
Rat glial cells C6; listed as Z-Leu-Leu-H
  Protection from necrosis induced by MTX on C6: not active
